Data published in patent US5128249A, “Stable sulpho-adenosyl-L-methionine (SAMe) salts, particularly suitable for oral pharmaceutical use” (Bioresearch S.p.a., priority 1984, dated 1992).

Legend:
[1] = Solubility in water and organic solvents; conditions: water
[2] = Absorption of SAMe salts in rats: areas under the SAMe plasmatic concentration curves (AUC); format: in vivo, Sprague Dawley male rats; conditions: 100 mg of active principle per kg, mean of 5 observations, extrapolated to infinity, 100 mg/kg; for AUC, intestinal administration: introduced into proximal jejunum; for AUC, oral administration: oral administration by gastric probe
Description: The absorption was studied on 110 Sprague Dawley male rats of weight 210 g which had fasted since the previous evening.
The products are administered in solution or in a 2% gum arabic aqueous suspension.
For each product, 5 rats are operated under ether anesthesia to allow the substance under examination to be introduced into the proximal jejunum. The wall incision is closed by ligature, and the animals sutured.
The product is administered to a further 5 animals orally by means of a gastric probe.
A blood sample is withdrawn from the caudal vein at the commencement and at 10, 20, 40, 60, 90, 120, 180 and 240 minutes after administration, and the SAMe concentration is determined on the sample by the modified method of Baldessarini and Kopin (J. Neurochem. 13: 769, 1966).
The plasmatic concentration values less the initial values are plotted against time and the areas under the time curves to infinity calculated by the trapezium and curve extrapolation method.
Areas under the SAMe plasmatic concentration curves (AUC) for rats treated intestinally and orally with the listed products at a dosage corresponding to 100 mg of active principle per kg of body weight. The values represent the mean of 5 observations.

With `CCCCCCCCCCCCCCS(=O)(=O)[O-].[Na+]` the solubility [1] was 10000 µg/mL.
In the case of `C[S+](CC[C@H](N)C(=O)[O-])C[C@H]1O[C@@H](n2cnc3c(N)ncnc32)[C@H](O)[C@@H]1O` (some centres unmarked) [DBS, SAMe tri dodecylbenzenesulphonate], the “AUC, intestinal administration” value [2] is reported as 17000 N moles · ml^-1 × min and the “AUC, oral administration” value [2] is reported as 7800 N moles · ml^-1 × min.
In the case of `C[S+](CC[C@H](N)C(=O)[O-])C[C@H]1O[C@@H](n2cnc3c(N)ncnc32)[C@H](O)[C@@H]1O` (some centres unmarked) [DSS, SAMe tri dioctylsulphosuccinate], the “AUC, intestinal administration” value [2] is reported as 18500 N moles · ml^-1 × min and the “AUC, oral administration” value [2] is reported as 8000 N moles · ml^-1 × min.
With `C[S+](CC[C@H](N)C(=O)[O-])C[C@H]1O[C@@H](n2cnc3c(N)ncnc32)[C@H](O)[C@@H]1O` (some centres unmarked) [Example S1, SAMe tri methanesulphonate, reference compound] the “AUC, intestinal administration” value [2] was 4400 N moles · ml^-1 × min and the “AUC, oral administration” value [2] was 870 N moles · ml^-1 × min.
For `C[S+](CC[C@H](N)C(=O)[O-])C[C@H]1O[C@@H](n2cnc3c(N)ncnc32)[C@H](O)[C@@H]1O` (some centres unmarked) [Example S5, SAMe tri pentanesulphonate, reference compound], the “AUC, intestinal administration” value [2] was 4900 N moles · ml^-1 × min and the “AUC, oral administration” value [2] was 950 N moles · ml^-1 × min.
In the case of `C[S+](CC[C@H](N)C(=O)[O-])C[C@H]1O[C@@H](n2cnc3c(N)ncnc32)[C@H](O)[C@@H]1O` (some centres unmarked) [Example S6, SAMe tri hexanesulphonate, reference compound], the “AUC, intestinal administration” value [2] is reported as 6900 N moles · ml^-1 × min and the “AUC, oral administration” value [2] is reported as 980 N moles · ml^-1 × min.
In the case of `C[S+](CC[C@H](N)C(=O)[O-])C[C@H]1O[C@@H](n2cnc3c(N)ncnc32)[C@H](O)[C@@H]1O` (some centres unmarked) [Example S12, SAMe tri dodecanesulphonate], the “AUC, intestinal administration” value [2] is reported as 25500 N moles · ml^-1 × min and the “AUC, oral administration” value [2] is reported as 9700 N moles · ml^-1 × min.
For `C[S+](CC[C@H](N)C(=O)[O-])C[C@H]1O[C@@H](n2cnc3c(N)ncnc32)[C@H](O)[C@@H]1O` (some centres unmarked) [Example S012, SAMe tri laurylsulphate], the “AUC, intestinal administration” value [2] was 20800 N moles · ml^-1 × min and the “AUC, oral administration” value [2] was 8900 N moles · ml^-1 × min.
In the case of `C[S+](CC[C@H](N)C(=O)[O-])C[C@H]1O[C@@H](n2cnc3c(N)ncnc32)[C@H](O)[C@@H]1O` (some centres unmarked) [Example S14, SAMe tri tetradecanesulphonate], the “AUC, intestinal administration” value [2] is reported as 26800 N moles · ml^-1 × min and the “AUC, oral administration” value [2] is reported as 9800 N moles · ml^-1 × min.
For `C[S+](CC[C@H](N)C(=O)[O-])C[C@H]1O[C@@H](n2cnc3c(N)ncnc32)[C@H](O)[C@@H]1O` (some centres unmarked) [Example S16, SAMe tri hexadecanesulphonate], the “AUC, intestinal administration” value [2] was 25300 N moles · ml^-1 × min and the “AUC, oral administration” value [2] was 9600 N moles · ml^-1 × min.
For `C[S+](CC[C@H](N)C(=O)[O-])C[C@H]1O[C@@H](n2cnc3c(N)ncnc32)[C@H](O)[C@@H]1O` (some centres unmarked) [Example S18, SAMe tri octadecanesulphonate], the “AUC, intestinal administration” value [2] was 24100 N moles · ml^-1 × min and the “AUC, oral administration” value [2] was 9400 N moles · ml^-1 × min.
With `C[S+](CC[C@H](N)C(=O)[O-])C[C@H]1O[C@@H](n2cnc3c(N)ncnc32)[C@H](O)[C@@H]1O` (some centres unmarked) [SAMe SO4 -PTS, SAMe disulphatep-toluenesulphonate, reference compound] the “AUC, intestinal administration” value [2] was 6700 N moles · ml^-1 × min and the “AUC, oral administration” value [2] was 990 N moles · ml^-1 × min.
